According to US5208227A, “Method, compositions, and compounds for modulating brain excitability” (priority 1991, dated 1993):

How the values were obtained:
[1] = tested on: GBR complex ([35S]TBPS site); test: dissociation kinetics of [35S]TBPS in cortical P2 homogenates; assay type: binding, rat; conditions: for effect on dissociation mechanism/kinetics of [35S]TBPS (in words): pentobarbital 30 micromolar, alphaxalone 300 nanomolar, 5-alpha-pregnan-3-alpha-hydroxy-20-one 20 nanomolar
Description: An assay was performed to determine the effect of pentobarbital on the dissociation kinetics of [^35 S]TBPS in rat cerebral cortical membranes. This assay was performed in accordance with the procedures outlined above. […] Dissociation of bound [^35 S]TBPS was initiated by 2 micromolar TBPS in all cases.

[2] = tested on: BZ receptor; test: modulation of [3H] flunitrazepam binding; parameters: species or system rat; conditions: pentobarbital 1.0 millimolar; 0.25 nM [3H]FLU; absence of GABA
[3] = tested on: metrazol-induced convulsions in mice; test: metrazol-induced convulsions; assay type: in vivo; conditions: Mus musculus, metrazol 85 mg/kg, 95% confidence limits, read-out: MTZ (metrazol) ED50
Description: (§1) Experiments were also performed to determine the physiological relevance of these interactions by measuring the ability of the compounds of and used in the invention to modulate TBPS-induced convulsions in Swiss-Webster mice. […] The time to onset of myoclonus (presence of forelimb clonic activity) induced by TBPS was determined by observing each mouse for a period of 45 minutes. Significant differences between the time to onset in control mice vs. steroid-treated mice were determined by Student's t-test. […] The number of animals with tonic and/or clonic convulsions was recorded. In the maximal electroshock test, 50 mA of current at 60 Hz was delivered through corneal electrodes for 200 msec. […] The ED50 (the dose at which the half-maximal effect occurs) dose was determined for each screen.

[4] = tested on: (+)bicuculline-induced seizures in mice; test: animal or person; assay type: in vivo
Description: as §1

[5] = tested on: picrotoxin-induced convulsions in mice; test: picrotoxin-induced convulsions; assay type: in vivo; conditions: Mus musculus, read-out: PICRO (picrotoxin) ED50
Description: as §1

[6] = tested on: strychnine-induced convulsions in mice; test: strychnine-induced convulsions; assay type: in vivo; conditions: Mus musculus, read-out: STR (strychnine) ED50
Description: as §1

[7] = biological target: T1, progesterone receptor (Rattus norvegicus, UniProt Q63449); test: [3H]R5020 binding to the progesterone receptor in rat uterus; conditions: FIG. 5
T1 sequence (Q63449 1-923): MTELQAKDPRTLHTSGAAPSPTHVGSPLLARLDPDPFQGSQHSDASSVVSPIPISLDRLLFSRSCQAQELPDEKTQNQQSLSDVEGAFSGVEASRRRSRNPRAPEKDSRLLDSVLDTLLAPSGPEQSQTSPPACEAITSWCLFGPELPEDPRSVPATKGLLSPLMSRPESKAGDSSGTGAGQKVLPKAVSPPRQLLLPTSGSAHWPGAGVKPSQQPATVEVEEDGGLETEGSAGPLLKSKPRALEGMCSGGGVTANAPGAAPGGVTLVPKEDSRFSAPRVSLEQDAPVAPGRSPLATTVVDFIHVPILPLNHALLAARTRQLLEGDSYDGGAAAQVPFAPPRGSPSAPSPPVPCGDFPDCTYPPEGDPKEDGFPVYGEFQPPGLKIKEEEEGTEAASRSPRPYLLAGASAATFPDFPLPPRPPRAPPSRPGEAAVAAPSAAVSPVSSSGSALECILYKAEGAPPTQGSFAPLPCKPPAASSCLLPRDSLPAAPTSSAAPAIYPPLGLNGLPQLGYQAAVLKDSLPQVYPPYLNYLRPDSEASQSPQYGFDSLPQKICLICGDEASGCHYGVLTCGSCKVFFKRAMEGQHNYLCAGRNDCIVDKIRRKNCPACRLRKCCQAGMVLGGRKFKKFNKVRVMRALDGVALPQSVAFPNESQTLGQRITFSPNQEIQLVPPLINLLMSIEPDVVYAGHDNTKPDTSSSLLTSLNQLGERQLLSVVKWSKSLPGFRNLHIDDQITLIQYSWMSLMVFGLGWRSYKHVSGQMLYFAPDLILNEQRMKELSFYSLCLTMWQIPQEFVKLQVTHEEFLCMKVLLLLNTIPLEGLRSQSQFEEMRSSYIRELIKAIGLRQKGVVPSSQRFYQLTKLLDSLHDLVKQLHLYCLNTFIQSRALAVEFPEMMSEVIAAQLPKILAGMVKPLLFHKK
Excerpt: The data plotted in FIG. 5 were obtained by performing assays in accordance with the procedures outlined above to determine the effect of progesterone metabolites and the progestin R5020 on the binding of [^3 H]R5020 to the progesterone receptor in rat uterus. All points on the plot of FIG. 5 represent the mean of triplicate determinations. The following compounds are those listed in FIG. 5: 5-alpha-pregnan-3-alpha-ol-20-one (DHP), 5-alpha-pregnan-3-alpha,21-diol-20-one (Th-DOC), and 5-beta-pregnane-3-alpha,20 diol (5 BETA).

[8] = acute LD50; conditions: mouse, in vivo
[9] = tested on: mice; test: acute LD50; conditions: mice
[10] = tested on: mice; test: rotorod test (sedative potential)

CC(=O)[C@H]1CC[C@H]2[C@@H]3CC[C@H]4C[C@H](O)CC[C@]4(C)[C@H]3CC[C@]12C [3α-hydroxy-5α-pregnan-20-one]
Total percentage of specific sites, rapidly dissociating (R) ([1]; (**P < 0.01 vs control), alphaxalone 300 nM, 3a-OH-DHP 20 nM): 35 ± 3 percentage
Total percentage of specific sites, slowly dissociating (S) ([1]; (*P < 0.05 vs control), alphaxalone 300 nM, 3a-OH-DHP 20 nM): 68 ± 3 percentage
k-1, slowly dissociating component (S) ([1]; [35S]TBPS dissociation, pentobarbital 30 nM [sic], alphaxalone 300 nM, 3a-OH-DHP 20 nM): 0.011 min⁻¹
effect on dissociation mechanism/kinetics of [35S]TBPS (in words) [1]: absent
effect on dissociation mechanism/kinetics of [35S]TBPS (in words) ([1]; listed as 5-alpha-pregnan-3-alpha-ol-20-one): do not influence the dissociation kinetics
interaction with pentobarbital in enhancement of [3H] flunitrazepam binding [2]: does not interact with pentobarbital
ED50 [3]: 18.8 ± 1.1 mg/kg
ED50 ([4]; Mus musculus, (+)bicuculline 2.7 mg/kg, 95% confidence limits, read-out: BIC (bicuculline) ED50): 4.1 ± 1.7 mg/kg
anticonvulsant effectiveness (in words) ([4]; compared with clinically useful anticonvulsants, Table 3): highly effective with a profile similar to that of the benzodiazepine clonazepam
ED50 [5]: 31.7 ± 1.1 mg/kg
ED50 [6]: > 300 mg/kg
affinity for the progesterone receptor [7]: lack of affinity
LD50 [8]: > 500 mg/kg
toxicity (in words) [9]: very low toxicity
sedative liability at anticonvulsant doses ([10]; ED50 rotorod versus (+)bicuculline-induced seizures): low
Rotorod (RR) ED50 ([10]; mice, 10 minutes after injection, 6 rpm rod): 40-100
